Assay results: patent US20060216699A1, “Peptides for the detection of HIV-1 group O” (priority 1998, published 2006)

How the values were obtained:
[1] = tested on: anti-HIV-1 group O antibodies present in human serum; test: ELISA: biotinylated peptide bound to streptavidin-coated wells, HIV-1 group O sera, anti-IgG:HRP, OPD, absorbance at 492 nm; assay type: binding
Method: Serological recognition of the peptide by HIV-1 group O sera. Peptide 147 was evaluated for its ability to be recognized by anti-HIV-1 group O antibodies present in human serum from infected individuals. All group O samples were confirmed to be positive for HIV-1 group O by reverse transcriptase-polymerase chain reaction (RT-PCR) amplification of viral gp41 sequences using O-specific primers. The identity of the PCR product was further confirmed by DNA sequencing.
This technique involves binding of the antigen to a solid phase, bringing the fluid to be tested into contact with the antigen-coated solid phase, washing away any unbound material, and then detecting bound antibodies with an enzyme-labeled second antibody. The presence of the enzyme is detected using a chromogenic or luminogenic substrate.
To evaluate biotinylated peptide 147, wells of a microtiter plate were coated with streptavidin at a concentration of 1 μg/ml in 50 mM carbonate buffer, pH 9.6 (200 μl/well). Excess unbound streptavidin was removed by washing several times with phosphate buffered saline (PBS). Biotinylated peptide 147 was dissolved in a minimal volume of pure DMSO and then diluted into PBS to a concentration of 0.5 μg/ml. Two hundred microliters of the peptide solution were added to each well and the peptide allowed to bind to the streptavidin. After removing unbound peptide by washing with PBS, serum samples obtained from HIV-1 group O-infected patients were added to the wells of the plate. After a suitable incubation period, unbound material was removed by washing with PBS. A dilution of an anti-IgG:horse radish peroxidase (HRP) conjugate was added to each well and incubated for 30 minutes at 37° C. Unbound material was removed by extensive washing. Substrate solution containing O-phenylenediamine (OPD) and H2O2 was added to each well and the plate was further incubated, protected from light. After a 30 minute incubation period at room temperature, the reaction was terminated by the addition of 50 μl of 4N H2SO4 and the absorbance of each well was read at 492 nm.
Peptide 147 was first tested by using undiluted (10 μl) serum samples. The sample measurements are in optical density (OD).
A panel of serially diluted group O sera was tested with peptide 147 in order to evaluate the sensitivity of an ELISA using this antigen. Streptavidin-coated plates were prepared and loaded with peptide 147 as before, and tested using the dilutional panels. In addition, in order to compare the performance of […] peptide 147 with that of a genuine group O sequence, a second peptide was synthesized (peptide 146) corresponding to the sequence of the DUR variant.
These peptides cover precisely the same region of gp41, and were tested in parallel.

[2] = tested on: antibodies to HIV-1 group O; test: Chemiluminescent ELISA: serially diluted peptide on streptavidin-coated wells, serum ODS007b 1:60, anti-human IgG:HRP, luminol; assay type: binding; details: for luminescent units: serum ODS007b 1:60
Method: To compare the performance of peptide 147 to another genuine group O sequence, the peptide corresponding to the ANT70 sequence was synthesized (peptide 80). Peptides 147 and 80 were dissolved at the same concentration, serially diluted, and bound to streptavidin-coated wells. A 1:60 dilution of serum sample ODS007b (see Table 3) was added to all wells and incubated. After washing, an anti-human IgG:HRP conjugate was added, incubated, and the wells again thoroughly washed. In this case, a chemiluminescent substrate was used, consisting of luminol and a peracid salt. The emitted light was quantified using a luminometer. The results are tabulated in Table 4 and shown graphically in FIG. 2.

[3] = tested on: type B sample; test: ELISA: biotinylated peptide bound to streptavidin-coated wells, type B sample; assay type: binding, human; details: undiluted

Sequence: NQQRLNSWGCKGRIICYTSARWH (HIV Consensus) [peptide 147]
- performance compared with a genuine group O sequence (peptide 146) ([1]; a number of the dilutional panels, in words): equaled or significantly exceeded that of a genuine group O sequence
- binding of antibodies against the group O gp41 immunodominant region ([1]; highly diluted samples, in words): suitable antigen capable of binding antibodies against the group O gp41 immunodominant region
- OD492 ([1]; negative control (uninfected blood donor), undiluted sample (10 μl)): 0.056 OD
- OD492 ([1]; panel OP1, sample OP1A, dilution of original sample 2): 2.500 OD
- OD492 ([1]; panel OP1, sample OP1B, dilution of original sample 4): 2.298 OD
- OD492 ([1]; panel OP1, sample OP1C, dilution of original sample 8): 2.465 OD
- OD492 ([1]; panel OP1, sample OP1D, dilution of original sample 16): 2.387 OD
- OD492 ([1]; panel OP1, sample OP1E, dilution of original sample 32): 2.013 OD
- OD492 ([1]; panel OP1, sample OP1F, dilution of original sample 64): 1.448 OD
- OD492 ([1]; panel OP1, sample OP1G, dilution of original sample 128): 1.150 OD
- OD492 ([1]; panel OP1, sample OP1H, dilution of original sample 256): 0.927 OD
- OD492 ([1]; panel OP1, sample OP1I, dilution of original sample 512): 0.504 OD
- OD492 ([1]; panel OP1, sample OP1J, dilution of original sample 1024): 0.053 OD
- OD492 ([1]; panel OP2, sample OP2A, dilution of original sample 5): 2.236 OD
- OD492 ([1]; panel OP2, sample OP2B, dilution of original sample 10): 2.320 OD
- OD492 ([1]; panel OP2, sample OP2C, dilution of original sample 20): 2.157 OD
- OD492 ([1]; panel OP2, sample OP2D, dilution of original sample 40): 1.844 OD
- OD492 ([1]; panel OP2, sample OP2E, dilution of original sample 80): 1.061 OD
- OD492 ([1]; panel OP2, sample OP2F, dilution of original sample 160): 0.689 OD
- OD492 ([1]; panel OP2, sample OP2G, dilution of original sample 320): 0.327 OD
- OD492 ([1]; panel OP2, sample OP2H, dilution of original sample 640): 0.184 OD
- OD492 ([1]; panel OP2, sample OP2I, dilution of original sample 1280): 0.179 OD
- OD492 ([1]; panel OP2, sample OP2J, dilution of original sample 2560): 0.090 OD
- OD492 ([1]; panel OP3, sample OP3A, dilution of original sample 300): 0.229 OD
- OD492 ([1]; panel OP3, sample OP3B, dilution of original sample 600): 0.373 OD
- OD492 ([1]; panel OP3, sample OP3C, dilution of original sample 1200): 0.211 OD
- OD492 ([1]; panel OP4, sample OP4A, dilution of original sample 100): 0.774 OD
- OD492 ([1]; panel OP4, sample OP4B, dilution of original sample 200): 0.608 OD
- OD492 ([1]; panel OP4, sample OP4C, dilution of original sample 400): 0.398 OD
- OD492 ([1]; panel OP4, sample OP4D, dilution of original sample 800): 0.277 OD
- OD492 ([1]; panel OP4, sample OP4E, dilution of original sample 1600): 0.040 OD
- OD492 ([1]; panel OP5, sample OP5A, dilution of original sample 100): 1.624 OD
- OD492 ([1]; panel OP5, sample OP5B, dilution of original sample 200): 1.027 OD
- OD492 ([1]; panel OP5, sample OP5C, dilution of original sample 400): 0.225 OD
- OD492 ([1]; panel OP5, sample OP5D, dilution of original sample 800): 0.302 OD
- OD492 ([1]; panel OP6, sample OP6A, dilution of original sample 50): 0.667 OD
- OD492 ([1]; panel OP7-2, sample OP7-2A, dilution of original sample 100): 2.081 OD
- OD492 ([1]; panel OP7-2, sample OP7-2B, dilution of original sample 200): 1.817 OD
- OD492 ([1]; panel OP7-2, sample OP7-2C, dilution of original sample 400): 1.346 OD
- OD492 ([1]; panel OP7-2, sample OP7-2D, dilution of original sample 800): 0.847 OD
- OD492 ([1]; sample ODS001, undiluted): 2.500 OD
- OD492 ([1]; sample ODS002, undiluted): 2.500 OD
- OD492 ([1]; sample ODS003, undiluted): 2.500 OD
- OD492 ([1]; sample ODS004, undiluted): 2.500 OD
- OD492 ([1]; sample ODS006, undiluted): 2.500 OD
- OD492 ([1]; sample ODS007a, undiluted): 2.500 OD
- OD492 ([1]; sample ODS007b, undiluted): 2.500 OD
- OD492 ([1]; sample ODS009, undiluted): 2.500 OD
- recognition by antibodies produced in response to an HIV-1 group O infection ([1]; undiluted specimens, in words): capable of recognizing peptide 147
- detection of antibodies to HIV-1 group O compared with a naturally occurring isolate (peptide 80) ([2]; in words): comparable to that of a naturally occurring isolate
- luminescent units ([2]; peptide 0.020 ug/ml): 0.619 luminescent units
- luminescent units ([2]; peptide 0.039 ug/ml): 0.504 luminescent units
- luminescent units ([2]; peptide 0.078 ug/ml): 0.740 luminescent units
- luminescent units ([2]; peptide 0.156 ug/ml): 1.199 luminescent units
- luminescent units ([2]; peptide 0.313 ug/ml): 2.090 luminescent units
- luminescent units ([2]; peptide 0.625 ug/ml): 3.093 luminescent units
- luminescent units ([2]; peptide 1.250 ug/ml): 2.885 luminescent units
- luminescent units ([2]; peptide 2.500 ug/ml): 2.374 luminescent units
- OD492 [3]: 1.926 OD
